Consider 1 molecule from patent publication US12173309B2, “Compounds for increasing genome editing efficiency” (Max-Planck-Gesellschaft zur Förderung der Wissenschaften …, priority 2017, dated 2024).

The test system of one experiment is CD4^+ T cells. Put plainly: PGE of HPRT with Cpf1 electroporation in non-pluripotent cells. The experiment is classed as cell-based, human. To be noted: primary cells. The procedure: (§1) Cells were grown at 37° C. in a humidified incubator gassed with 5% CO2. Media was replaced every day for stem cells and every second day for non-pluripotent cell lines. Cell cultures were maintained 4-6 days until ˜80% confluency, and subcultured at a 1:6 to 1:10 dilution.
(§2) The recombinant A.s. Cpf1 and S.p. Cas9 protein and electroporation enhancer was ordered from IDT (Coralville, USA) and nucleofection was done using the manufacturer's protocol, except for the following alterations. […] For multiplexing, only gRNAs and single stranded DNA donors were electroporated, since a Cas9n expressing iCRISPR-Cas9n hiPSC line was used. Cells were counted using the Countess Automated Cell Counter (Invitrogen).
(§3) Three days after lipofection cells were dissociated using Accutase (SIGMA, A6964), pelleted, and resuspended in 15 μl QuickExtract (Epicentre, QE0905T). Incubation at 65° C. for 10 min, 68° C. for 5 min and finally 98° C. for 5 min was performed to yield ssDNA as a PCR template. Primers for each targeted loci of CALD1, KATNA1 and SLITRK1 containing adapters for Illumina sequencing were ordered from IDT (Coralville, USA). PCR was done in a T100 Thermal Cycler (Bio-Rad) using the KAPA2G Robust PCR Kit (Peqlab, 07-KK5532-03) with supplied buffer B and 3 μl of cell extract in a total volume of 25 μl. The thermal cycling profile of the PCR was: 95° C.

The subject of a further experiment is CD34^+ progenitor cells. The experiment is described as above. Format: cell-based, human. As to conditions: primary cells. The procedure: as §1, §2, §3

Turning to `NS(=O)(=O)OC[C@@H]1C[C@@H](n2ccc3c(N[C@H]4CCc5ccccc54)ncnc32)C[C@@H]1O` [MLN4924, Pevonedistat], the “effect on PGE efficiency” value with CD4^+ T cells and in the experiment with CD34^+ progenitor cells was “disruptive effect” in each case.
